# Measurements: patent US20230017045A1, “PYRIDINE AND PYRIMIDINE CARBOXYLATE HERBICIDES AND METHODS OF USE THEREOF” (Dow AgroSciences LLC, priority 2017, published 2023)
# Tested on: test plant species
# Experiment: Post-emergent herbicidal activity test (greenhouse, foliar spray, visual growth reduction)
# Type: in vivo
# Details: post-emergence, 336 h, ALOMY: blackgrass (Alopecurus myosuroides), 140 g ai/ha, 14 days after application, read-out: Visual Growth Reduction (%) 14 Days After Application, ALOMY
# Method in brief: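 Greenhouse plants at first–second true leaf stage sprayed overhead at 187 L/ha with compound in acetone/water/isopropanol/DMSO/crop oil/X-77 carrier; controls received solvent blank. Injury rated visually after 14 d on a 0–100% scale versus untreated and control plants, converted to growth reduction.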
row,Structure (SMILES),pest or weed control at 140 g/ha
1,"COC(=O)c1nc(-c2ccc(C(F)(F)F)cc2OC)c(F)cc1Cl [F166, Methyl 3-chloro-5-fluoro-6-(2-methoxy-4-(trifluoromethyl)phenyl)picolinate]",0 to 29%

# Same assay, conditions: post-emergence, 336 h, AMARE: redroot pigweed (Amaranthus retroflexus), 140 g ai/ha, 14 days after application, read-out: Visual Growth Reduction (%) 14 Days After Application, AMARE
row,Structure (SMILES),pest or weed control at 140 g/ha
1,"COC(=O)c1nc(-c2ccc(C(F)(F)F)cc2OC)c(F)cc1Cl [F166, Methyl 3-chloro-5-fluoro-6-(2-methoxy-4-(trifluoromethyl)phenyl)picolinate]",95 to 100%

# Same assay, conditions: post-emergence, 336 h, AVEFA: wild oat (Avena fatua), 140 g ai/ha, 14 days after application, read-out: Visual Growth Reduction (%) 14 Days After Application, AVEFA
row,Structure (SMILES),pest or weed control at 140 g/ha
1,"COC(=O)c1nc(-c2ccc(C(F)(F)F)cc2OC)c(F)cc1Cl [F166, Methyl 3-chloro-5-fluoro-6-(2-methoxy-4-(trifluoromethyl)phenyl)picolinate]",75 to 84%

# Same assay, conditions: post-emergence, 336 h, CHEAL: lambsquarters (Chenopodium album), 140 g ai/ha, 14 days after application, read-out: Visual Growth Reduction (%) 14 Days After Application, CHEAL
row,Structure (SMILES),pest or weed control at 140 g/ha
1,"COC(=O)c1nc(-c2ccc(C(F)(F)F)cc2OC)c(F)cc1Cl [F166, Methyl 3-chloro-5-fluoro-6-(2-methoxy-4-(trifluoromethyl)phenyl)picolinate]",85 to 94%

# Same assay, conditions: post-emergence, 336 h, CIRAR: canada thistle (Cirsium arvense), 140 g ai/ha, 14 days after application, read-out: Visual Growth Reduction (%) 14 Days After Application, CIRAR
row,Structure (SMILES),pest or weed control at 140 g/ha
1,"COC(=O)c1nc(-c2ccc(C(F)(F)F)cc2OC)c(F)cc1Cl [F166, Methyl 3-chloro-5-fluoro-6-(2-methoxy-4-(trifluoromethyl)phenyl)picolinate]",85 to 94%

# Same assay, conditions: post-emergence, 336 h, CYPES: yellow nutsedge (Cyperus esculentus), 140 g ai/ha, 14 days after application, read-out: Visual Growth Reduction (%) 14 Days After Application, CYPES
row,Structure (SMILES),pest or weed control at 140 g/ha
1,"COC(=O)c1nc(-c2ccc(C(F)(F)F)cc2OC)c(F)cc1Cl [F166, Methyl 3-chloro-5-fluoro-6-(2-methoxy-4-(trifluoromethyl)phenyl)picolinate]",0 to 29%

# Same assay, conditions: post-emergence, 336 h, DIGSA: crabgrass (Digitaria sanguinalis), 140 g ai/ha, 14 days after application, read-out: Visual Growth Reduction (%) 14 Days After Application, DIGSA
row,Structure (SMILES),pest or weed control at 140 g/ha
1,"COC(=O)c1nc(-c2ccc(C(F)(F)F)cc2OC)c(F)cc1Cl [F166, Methyl 3-chloro-5-fluoro-6-(2-methoxy-4-(trifluoromethyl)phenyl)picolinate]",75 to 84%

# Same assay, conditions: post-emergence, 336 h, ECHCG: barnyardgrass (Echinochloa crus-galli), 140 g ai/ha, 14 days after application, read-out: Visual Growth Reduction (%) 14 Days After Application, ECHCG
row,Structure (SMILES),pest or weed control at 140 g/ha
1,"COC(=O)c1nc(-c2cc3ncsc3cc2F)c(F)cc1Cl [F265, Methyl 3-chloro-5-fluoro-6-(6-fluorobenzo[d]thiazol-5-yl)picolinate]",0 to 29%
2,"COC(=O)c1nc(-c2ccc(C(F)(F)F)c(OC)c2)ccc1Cl [F296, Methyl 3-chloro-6-(3-methoxy-4-(trifluoromethyl)phenyl)picolinate]",0 to 29%
3,"COC(=O)c1nc(-c2ccc(C(F)(F)F)cc2OC)c(F)cc1Cl [F166, Methyl 3-chloro-5-fluoro-6-(2-methoxy-4-(trifluoromethyl)phenyl)picolinate]",95 to 100%

# Same assay, conditions: post-emergence, 336 h, IPOHE: ivy-leaf morning glory (Ipomoea hederacea), 140 g ai/ha, 14 days after application, read-out: Visual Growth Reduction (%) 14 Days After Application, IPOHE
row,Structure (SMILES),pest or weed control at 140 g/ha
1,"COC(=O)c1nc(-c2cc3ncsc3cc2F)c(F)cc1Cl [F265, Methyl 3-chloro-5-fluoro-6-(6-fluorobenzo[d]thiazol-5-yl)picolinate]",0 to 29%
2,"COC(=O)c1nc(-c2ccc(C(F)(F)F)c(OC)c2)ccc1Cl [F296, Methyl 3-chloro-6-(3-methoxy-4-(trifluoromethyl)phenyl)picolinate]",45 to 59%
3,"COC(=O)c1nc(-c2ccc(C(F)(F)F)cc2OC)c(F)cc1Cl [F166, Methyl 3-chloro-5-fluoro-6-(2-methoxy-4-(trifluoromethyl)phenyl)picolinate]",95 to 100%

# Same assay, conditions: post-emergence, 336 h, KCHSC: kochia (Bassia scoparia), 140 g ai/ha, 14 days after application, read-out: Visual Growth Reduction (%) 14 Days After Application, KCHSC
row,Structure (SMILES),pest or weed control at 140 g/ha
1,"COC(=O)c1nc(-c2cc3ncsc3cc2F)c(F)cc1Cl [F265, Methyl 3-chloro-5-fluoro-6-(6-fluorobenzo[d]thiazol-5-yl)picolinate]",0 to 29%
2,"COC(=O)c1nc(-c2ccc(C(F)(F)F)c(OC)c2)ccc1Cl [F296, Methyl 3-chloro-6-(3-methoxy-4-(trifluoromethyl)phenyl)picolinate]",0 to 29%
3,"COC(=O)c1nc(-c2ccc(C(F)(F)F)cc2OC)c(F)cc1Cl [F166, Methyl 3-chloro-5-fluoro-6-(2-methoxy-4-(trifluoromethyl)phenyl)picolinate]",95 to 100%

# Same assay, conditions: post-emergence, 336 h, ORYSA: rice (Oryza sativa), 140 g ai/ha, 14 days after application, read-out: Visual Growth Reduction (%) 14 Days After Application, ORYSA
row,Structure (SMILES),pest or weed control at 140 g/ha
1,"COC(=O)c1nc(-c2cc3ncsc3cc2F)c(F)cc1Cl [F265, Methyl 3-chloro-5-fluoro-6-(6-fluorobenzo[d]thiazol-5-yl)picolinate]",0 to 29%
2,"COC(=O)c1nc(-c2ccc(C(F)(F)F)c(OC)c2)ccc1Cl [F296, Methyl 3-chloro-6-(3-methoxy-4-(trifluoromethyl)phenyl)picolinate]",0 to 29%
3,"COC(=O)c1nc(-c2ccc(C(F)(F)F)cc2OC)c(F)cc1Cl [F166, Methyl 3-chloro-5-fluoro-6-(2-methoxy-4-(trifluoromethyl)phenyl)picolinate]",0 to 29%

# Same assay, conditions: post-emergence, 336 h, SETFA: giant foxtail (Setaria faberi), 140 g ai/ha, 14 days after application, read-out: Visual Growth Reduction (%) 14 Days After Application, SETFA
row,Structure (SMILES),pest or weed control at 140 g/ha
1,"COC(=O)c1nc(-c2cc3ncsc3cc2F)c(F)cc1Cl [F265, Methyl 3-chloro-5-fluoro-6-(6-fluorobenzo[d]thiazol-5-yl)picolinate]",0 to 29%
2,"COC(=O)c1nc(-c2ccc(C(F)(F)F)c(OC)c2)ccc1Cl [F296, Methyl 3-chloro-6-(3-methoxy-4-(trifluoromethyl)phenyl)picolinate]",0 to 29%
3,"COC(=O)c1nc(-c2ccc(C(F)(F)F)cc2OC)c(F)cc1Cl [F166, Methyl 3-chloro-5-fluoro-6-(2-methoxy-4-(trifluoromethyl)phenyl)picolinate]",85 to 94%

# Same assay, conditions: post-emergence, 336 h, SORVU: grain sorghum (Sorghum vulgare), 140 g ai/ha, 14 days after application, read-out: Visual Growth Reduction (%) 14 Days After Application, SORVU
row,Structure (SMILES),pest or weed control at 140 g/ha
1,"COC(=O)c1nc(-c2cc3ncsc3cc2F)c(F)cc1Cl [F265, Methyl 3-chloro-5-fluoro-6-(6-fluorobenzo[d]thiazol-5-yl)picolinate]",0 to 29%
2,"COC(=O)c1nc(-c2ccc(C(F)(F)F)c(OC)c2)ccc1Cl [F296, Methyl 3-chloro-6-(3-methoxy-4-(trifluoromethyl)phenyl)picolinate]",0 to 29%
3,"COC(=O)c1nc(-c2ccc(C(F)(F)F)cc2OC)c(F)cc1Cl [F166, Methyl 3-chloro-5-fluoro-6-(2-methoxy-4-(trifluoromethyl)phenyl)picolinate]",85 to 94%

# Same assay, conditions: post-emergence, 336 h, STEME: common chickweed (Stellaria media), 140 g ai/ha, 14 days after application, read-out: Visual Growth Reduction (%) 14 Days After Application, STEME
row,Structure (SMILES),pest or weed control at 140 g/ha
1,"COC(=O)c1nc(-c2cc3ncsc3cc2F)c(F)cc1Cl [F265, Methyl 3-chloro-5-fluoro-6-(6-fluorobenzo[d]thiazol-5-yl)picolinate]",0 to 29%
2,"COC(=O)c1nc(-c2ccc(C(F)(F)F)c(OC)c2)ccc1Cl [F296, Methyl 3-chloro-6-(3-methoxy-4-(trifluoromethyl)phenyl)picolinate]",0 to 29%
3,"COC(=O)c1nc(-c2ccc(C(F)(F)F)cc2OC)c(F)cc1Cl [F166, Methyl 3-chloro-5-fluoro-6-(2-methoxy-4-(trifluoromethyl)phenyl)picolinate]",30 to 44%

# Same assay, conditions: post-emergence, 336 h, TRZAS: wheat, spring (Triticum aestivum), 140 g ai/ha, 14 days after application, read-out: Visual Growth Reduction (%) 14 Days After Application, TRZAS
row,Structure (SMILES),pest or weed control at 140 g/ha
1,"COC(=O)c1nc(-c2cc3ncsc3cc2F)c(F)cc1Cl [F265, Methyl 3-chloro-5-fluoro-6-(6-fluorobenzo[d]thiazol-5-yl)picolinate]",0 to 29%
2,"COC(=O)c1nc(-c2ccc(C(F)(F)F)c(OC)c2)ccc1Cl [F296, Methyl 3-chloro-6-(3-methoxy-4-(trifluoromethyl)phenyl)picolinate]",0 to 29%
3,"COC(=O)c1nc(-c2ccc(C(F)(F)F)cc2OC)c(F)cc1Cl [F166, Methyl 3-chloro-5-fluoro-6-(2-methoxy-4-(trifluoromethyl)phenyl)picolinate]",75 to 84%

# Same assay, conditions: post-emergence, 336 h, blackgrass (Alopecurus myosuroides), 14 Days After Application, 140 g ai/ha, read-out: Visual Growth Reduction (%) ALOMY
row,Structure (SMILES),pest or weed control at 140 g/ha
1,"COC(=O)c1nc(-c2cc3ncsc3cc2F)c(F)cc1Cl [F265, Methyl 3-chloro-5-fluoro-6-(6-fluorobenzo[d]thiazol-5-yl)picolinate]",0 to 29%
2,"COC(=O)c1nc(-c2ccc(C(F)(F)F)c(OC)c2)ccc1Cl [F296, Methyl 3-chloro-6-(3-methoxy-4-(trifluoromethyl)phenyl)picolinate]",0 to 29%

# Same assay, conditions: post-emergence, 336 h, canada thistle (Cirsium arvense), 14 Days After Application, 140 g ai/ha, read-out: Visual Growth Reduction (%) CIRAR
row,Structure (SMILES),pest or weed control at 140 g/ha
1,"COC(=O)c1nc(-c2cc3ncsc3cc2F)c(F)cc1Cl [F265, Methyl 3-chloro-5-fluoro-6-(6-fluorobenzo[d]thiazol-5-yl)picolinate]",0 to 29%
2,"COC(=O)c1nc(-c2ccc(C(F)(F)F)c(OC)c2)ccc1Cl [F296, Methyl 3-chloro-6-(3-methoxy-4-(trifluoromethyl)phenyl)picolinate]",60 to 74%

# Same assay, conditions: post-emergence, 336 h, crabgrass (Digitaria sanguinalis), 14 Days After Application, 140 g ai/ha, read-out: Visual Growth Reduction (%) DIGSA
row,Structure (SMILES),pest or weed control at 140 g/ha
1,"COC(=O)c1nc(-c2cc3ncsc3cc2F)c(F)cc1Cl [F265, Methyl 3-chloro-5-fluoro-6-(6-fluorobenzo[d]thiazol-5-yl)picolinate]",0 to 29%
2,"COC(=O)c1nc(-c2ccc(C(F)(F)F)c(OC)c2)ccc1Cl [F296, Methyl 3-chloro-6-(3-methoxy-4-(trifluoromethyl)phenyl)picolinate]",0 to 29%

# Same assay, conditions: post-emergence, 336 h, lambsquarters (Chenopodium album), 14 Days After Application, 140 g ai/ha, read-out: Visual Growth Reduction (%) CHEAL
row,Structure (SMILES),pest or weed control at 140 g/ha
1,"COC(=O)c1nc(-c2cc3ncsc3cc2F)c(F)cc1Cl [F265, Methyl 3-chloro-5-fluoro-6-(6-fluorobenzo[d]thiazol-5-yl)picolinate]",75 to 84%
2,"COC(=O)c1nc(-c2ccc(C(F)(F)F)c(OC)c2)ccc1Cl [F296, Methyl 3-chloro-6-(3-methoxy-4-(trifluoromethyl)phenyl)picolinate]",0 to 29%

# Same assay, conditions: post-emergence, 336 h, redroot pigweed (Amaranthus retroflexus), 14 Days After Application, 140 g ai/ha, read-out: Visual Growth Reduction (%) AMARE
row,Structure (SMILES),pest or weed control at 140 g/ha
1,"COC(=O)c1nc(-c2cc3ncsc3cc2F)c(F)cc1Cl [F265, Methyl 3-chloro-5-fluoro-6-(6-fluorobenzo[d]thiazol-5-yl)picolinate]",0 to 29%
2,"COC(=O)c1nc(-c2ccc(C(F)(F)F)c(OC)c2)ccc1Cl [F296, Methyl 3-chloro-6-(3-methoxy-4-(trifluoromethyl)phenyl)picolinate]",0 to 29%

# Same assay, conditions: post-emergence, 336 h, wild oat (Avena fatua), 14 Days After Application, 140 g ai/ha, read-out: Visual Growth Reduction (%) AVEFA
row,Structure (SMILES),pest or weed control at 140 g/ha
1,"COC(=O)c1nc(-c2cc3ncsc3cc2F)c(F)cc1Cl [F265, Methyl 3-chloro-5-fluoro-6-(6-fluorobenzo[d]thiazol-5-yl)picolinate]",0 to 29%
2,"COC(=O)c1nc(-c2ccc(C(F)(F)F)c(OC)c2)ccc1Cl [F296, Methyl 3-chloro-6-(3-methoxy-4-(trifluoromethyl)phenyl)picolinate]",0 to 29%

# Same assay, conditions: post-emergence, 336 h, yellow nutsedge (Cyperus esculentus), 14 Days After Application, 140 g ai/ha, read-out: Visual Growth Reduction (%) CYPES
row,Structure (SMILES),pest or weed control at 140 g/ha
1,"COC(=O)c1nc(-c2cc3ncsc3cc2F)c(F)cc1Cl [F265, Methyl 3-chloro-5-fluoro-6-(6-fluorobenzo[d]thiazol-5-yl)picolinate]",0 to 29%
2,"COC(=O)c1nc(-c2ccc(C(F)(F)F)c(OC)c2)ccc1Cl [F296, Methyl 3-chloro-6-(3-methoxy-4-(trifluoromethyl)phenyl)picolinate]",0 to 29%
